The record followed here is PubChem BioAssay AID1259407 (Chemical Carcinogenesis Research Information System (CCRIS), 2018).

The source made the active and inactive calls. The rule behind the calls is not given here.

This data set deals with CCRIS mutagenicity, Ames/micronucleus/aberration tests. In words: CCRIS mutagenicity studies.
The mark [1] stands for this setting: Test System: AMES SALMONELLA TYPHIMURIUM, Strain/Indicator: TA98, Metabolic Activation: RAT, LIVER, S-9, AROCLOR 1254, Method: STANDARD PLATE.
The mark [2] stands for this setting: Test System: AMES SALMONELLA TYPHIMURIUM, Strain/Indicator: TA100, Metabolic Activation: NONE, Method: STANDARD PLATE.
[3] abbreviates: Test System: AMES SALMONELLA TYPHIMURIUM, Strain/Indicator: TA100, Metabolic Activation: RAT, LIVER, S-9, AROCLOR 1254, Method: STANDARD PLATE.

Regarding `C=CC(=C)CCC=C(C)C`, the mutagenic call by setting is: (End Point: E. coli, Strain/Indicator: WP2uvrA/pKM101, Metabolic Activation: None, Method: Preincubation) “inactive; negative”; (End Point: E. coli, Strain/Indicator: WP2uvrA/pKM101, Metabolic Activation: Rat, Liver, S-9, Aroclor 1254 (10%), Method: Preincubation) “inactive; negative”; (End Point: In vivo micronucleus, Test System: Micronucleated normochromatic erythrocytes, Species: Mouse, Strain/Sex: B6C3F1 / Female, Route: Oral) “inactive; negative”; (End Point: In vivo micronucleus, Test System: Micronucleated normochromatic erythrocytes, Species: Mouse, Strain/Sex: B6C3F1 / Male, Route: Oral) “inactive; negative”; (Test System: AMES SALMONELLA TYPHIMURIUM, Strain/Indicator: TA97A, Metabolic Activation: NONE, Method: STANDARD PLATE) “inactive; negative”; (Test System: AMES SALMONELLA TYPHIMURIUM, Strain/Indicator: TA97A, Metabolic Activation: RAT, LIVER, S-9, AROCLOR 1254, Method: STANDARD PLATE) “inactive; negative”. Also, the mutagenic call (Test System: AMES SALMONELLA TYPHIMURIUM, Strain/Indicator: TA98, Metabolic Activation: NONE, Method: STANDARD PLATE) was “inactive; negative”; the mutagenic call under setting [1] is “inactive; negative”; the mutagenic call under setting [2] is “inactive; negative”; the mutagenic call under setting [3] is “inactive; negative”; the mutagenic call (Test System: AMES SALMONELLA TYPHIMURIUM, Strain/Indicator: TA1535, Metabolic Activation: NONE, Method: STANDARD PLATE) is “inactive; negative”; the mutagenic call (Test System: AMES SALMONELLA TYPHIMURIUM, Strain/Indicator: TA1535, Metabolic Activation: RAT, LIVER, S-9, AROCLOR 1254, Method: STANDARD PLATE) was “inactive; negative”. In addition, the mutagenic call is “inactive; negative” (Test System: Ames Salmonella typhimurium, Strain/Indicator: TA97, Metabolic Activation: Hamster, Liver, S-9, Aroclor 1254 (10%), Method: Preincubation); “inactive; negative” (Test System: Ames Salmonella typhimurium, Strain/Indicator: TA97, Metabolic Activation: Hamster, Liver, S-9, Aroclor 1254 (30%), Method: Preincubation); “inactive; negative” (Test System: Ames Salmonella typhimurium, Strain/Indicator: TA97, Metabolic Activation: None, Method: Preincubation); “inactive; negative” (Test System: Ames Salmonella typhimurium, Strain/Indicator: TA97, Metabolic Activation: Rat, Liver, S-9, Aroclor 1254 (10%), Method: Preincubation); “inactive; negative” (Test System: Ames Salmonella typhimurium, Strain/Indicator: TA97, Metabolic Activation: Rat, Liver, S-9, Aroclor 1254 (30%), Method: Preincubation); “inactive; negative” (Test System: Ames Salmonella typhimurium, Strain/Indicator: TA98, Metabolic Activation: Hamster, Liver, S-9, Aroclor 1254 (10%), Method: Preincubation). Besides, the mutagenic call reads like this: (Test System: Ames Salmonella typhimurium, Strain/Indicator: TA98, Metabolic Activation: Hamster, Liver, S-9, Aroclor 1254 (30%), Method: Preincubation) “inactive; negative”; (Test System: Ames Salmonella typhimurium, Strain/Indicator: TA98, Metabolic Activation: None, Method: Preincubation) “inactive; negative”; (Test System: Ames Salmonella typhimurium, Strain/Indicator: TA98, Metabolic Activation: Rat, Liver, S-9, Aroclor 1254 (10%), Method: Preincubation) “inactive; negative”; (Test System: Ames Salmonella typhimurium, Strain/Indicator: TA98, Metabolic Activation: Rat, Liver, S-9, Aroclor 1254 (30%), Method: Preincubation) “inactive; negative”; (Test System: Ames Salmonella typhimurium, Strain/Indicator: TA100, Metabolic Activation: Hamster, Liver, S-9, Aroclor 1254 (10%), Method: Preincubation) “inactive; negative”; (Test System: Ames Salmonella typhimurium, Strain/Indicator: TA100, Metabolic Activation: Hamster, Liver, S-9, Aroclor 1254 (30%), Method: Preincubation) “inactive; negative”. The mutagenic call was “inactive; negative” (Test System: Ames Salmonella typhimurium, Strain/Indicator: TA100, Metabolic Activation: None, Method: Preincubation); “inactive; negative” (Test System: Ames Salmonella typhimurium, Strain/Indicator: TA100, Metabolic Activation: Rat, Liver, S-9, Aroclor 1254 (10%), Method: Preincubation); “inactive; negative” (Test System: Ames Salmonella typhimurium, Strain/Indicator: TA100, Metabolic Activation: Rat, Liver, S-9, Aroclor 1254 (30%), Method: Preincubation); “inactive; negative” (Test System: Ames Salmonella typhimurium, Strain/Indicator: TA1535, Metabolic Activation: Hamster, Liver, S-9, Aroclor 1254 (10%), Method: Preincubation); “inactive; negative” (Test System: Ames Salmonella typhimurium, Strain/Indicator: TA1535, Metabolic Activation: Hamster, Liver, S-9, Aroclor 1254 (30%), Method: Preincubation); “inactive; negative” (Test System: Ames Salmonella typhimurium, Strain/Indicator: TA1535, Metabolic Activation: None, Method: Preincubation). The mutagenic call was “inactive; negative” (Test System: Ames Salmonella typhimurium, Strain/Indicator: TA1535, Metabolic Activation: Rat, Liver, S-9, Aroclor 1254 (10%), Method: Preincubation); “inactive; negative” (Test System: Ames Salmonella typhimurium, Strain/Indicator: TA1535, Metabolic Activation: Rat, Liver, S-9, Aroclor 1254 (30%), Method: Preincubation); “inactive; negative” (Test System: CHINESE HAMSTER V-79, Strain/Indicator: V-79/6-THIOGUANINE (HGPRT), Metabolic Activation: NONE, Method: PREINCUBATION); “inactive; negative” (Test System: CHINESE HAMSTER V-79, Strain/Indicator: V-79/6-THIOGUANINE (HGPRT), Metabolic Activation: RAT, LIVER, S-9, Method: PREINCUBATION); “inactive; negative” (Test System: E. coli, Strain/Indicator: WP2 IC185 trpE65, Metabolic Activation: None, Method: Plate incorporation (Test material solvent: ethanol)); “inactive; negative” (Test System: E. coli, Strain/Indicator: WP2 IC202 trpE65 oxyR/pKM101, Metabolic Activation: None, Method: Plate incorporation (Test material solvent: ethanol)).

`O=Nc1ccc(NNc2ccccc2)cc1`: the mutagenic call is “active; positive” under setting [1] and “active; positive” under setting [3].

With `Cc1ccc(NC(=O)c2ccc(CN3CCN(C)CC3)cc2)cc1Nc1nccc(-c2cccnc2)n1`, the mutagenic call is “active; positive (structural and numerical changes)” (End Point: IN VITRO CHROMOSOMAL ABERRATIONS, Test System: CHINESE HAMSTER EMBRYO (CHE), Metabolic Activation: NONE); “active; positive (numerical changes)” (End Point: IN VITRO CHROMOSOMAL ABERRATIONS, Test System: INDIAN MUNTJAK FIBROBLASTS (IMF), Metabolic Activation: NONE); “active; positive (structural changes)” (End Point: IN VITRO CHROMOSOMAL ABERRATIONS, Test System: NORMAL HUMAN DERMAL FIBROBLASTS (NHDF), Metabolic Activation: NONE).

In the case of `CC1(C(=O)NCc2ccccc2)CO1` (stereo unspecified), the mutagenic call is, setting by setting: (Test System: AMES SALMONELLA TYPHIMURIUM, Strain/Indicator: TA100, Metabolic Activation: MOUSE, LIVER, S-9, AROCLOR 1254, Method: STANDARD PLATE) “active; positive”; under setting [2], “active; positive”.

As for `Oc1ccc2c(c1)sc1ccccc12`, the mutagenic call (Test System: CHINESE HAMSTER OVARY, Strain/Indicator: CHO-K1-BH4 (HGPRT)/6-THIOGUANINE, Metabolic Activation: RAT, LIVER, S-9, AROCLOR (4%)) is “active; positive”.

`O=C(O)CN(CCN(CC(=O)O)Cc1ccccc1O)Cc1ccccc1O`: the mutagenic call (Test System: Mouse lymphoma, Strain/Indicator: L5178Y (tk+/tk-), Metabolic Activation: None, Method: Suspension/plate) was “active; positive” and the mutagenic call (Test System: Mouse lymphoma, Strain/Indicator: L5178Y (tk+/tk-), Metabolic Activation: Rat, Liver, S-9, Aroclor 1254, Method: Suspension/plate) is “active; positive”.
